According to ChEMBL document CHEMBL1141815, “KR025, a new cytotoxic compound from Myxococcus fulvus” (J Nat Prod, 1999):
Values after ≈ are worked out from the molar mass of the structure shown.

Columns and labels:
Format in all cases: functional, cell-based
SK-MEL-2 = experiment: Cytotoxicity against human SK-MEL-2 cells after 72 hrs by SRB assay; conditions: SK-MEL-2, 72 h
HCT-15 = experiment: Cytotoxicity against human HCT-15 cells after 72 hrs by SRB assay; conditions: HCT-15, 72 h
XF498 = experiment: Cytotoxicity against human XF498 cells after 72 hrs by SRB assay; conditions: XF498, 72 h
SK-OV-3 = experiment: Cytotoxicity against human SKOV3 cells after 72 hrs by SRB assay; conditions: SK-OV-3, 72 h
A549 = experiment: Cytotoxicity against human A549 cells after 72 hrs by SRB assay; conditions: A549, 72 h

Compound	IC50 (SK-MEL-2) [ng/mL]	IC50 (HCT-15) [ng/mL]	IC50 (XF498) [ng/mL]	IC50 (SK-OV-3) [ng/mL]	IC50 (A549) [ng/mL]
CO/C(=C/C(N)=O)[C@H](C)[C@H](/C=C/c1csc(-c2csc([C@@H](C)/C=C/C=C/C(C)C)n2)n1)OC [MYXOTHIAZOL]	9.7 (≈ 19.9 nM)	0.03 (≈ 0.0615 nM)	0.03 (≈ 0.0615 nM)	0.01 (≈ 0.0205 nM)	0.01 (≈ 0.0205 nM)
CCCCCC[C@H]1C(=O)O[C@H](C)[C@H](NC(=O)c2cccc(NC=O)c2O)C(=O)O[C@@H](C)[C@@H]1OC(=O)CC(C)C [ANTIMYCIN A]	270 (≈ 492 nM)	410 (≈ 747 nM)	390 (≈ 711 nM)	5500 (≈ 10000 nM)	480 (≈ 875 nM)
COC(=O)/C=C(/OC)[C@H](C)[C@H](/C=C/c1csc(-c2cnc([C@@H](C)/C=C/C=C/C(C)C)s2)n1)OC	8.5 (≈ 16.9 nM)	0.06 (≈ 0.119 nM)	0.03 (≈ 0.0597 nM)	0.04 (≈ 0.0796 nM)	0.02 (≈ 0.0398 nM)
